Results: US20040077580A1, “Antisense modulation of PI3K P85 Expression” (priority 2000, published 2004)
Strand notation (5' to 3'): a small letter for the sugar, then the base; units joined by * are phosphorothioate-linked, units joined directly phosphodiester-linked; [ ] holds rarer units or linkages, { } end groups; capitals alone tell only the bases. e = 2'-O-(2-methoxyethyl) (MOE); [5mC] = 5-methylcytosine; d = 2'-deoxy (DNA)

These substances were tested on human PI3K p85 RNA (assay: Inhibition of human PI3K p85 mRNA levels by antisense oligonucleotides, real-time quantitative PCR). Conditions: chimeric phosphorothioate oligonucleotides with 2′-MOE wings and deoxy gap, oligonucleotide 150 nM, averaged from two experiments.
Format: cell-based
Procedure: Cells were harvested 16 hours after oligonucleotide treatment.
Poly(A)+ mRNA was isolated according to Miura et al., Clin. Chem., 1996, 42, 1758-1764. Other methods for poly(A)+ mRNA isolation are taught in, for example, Ausubel, F. M. et al., Current Protocols in Molecular Biology, Volume 1, pp. 4.5.1-4.5.3, John Wiley & Sons, Inc., 1993. […] 60 μL lysis buffer (10 mM Tris-HCl, pH 7.6, 1 mM EDTA, 0.5 M NaCl, 0.5% NP-40, 20 mM vanadyl-ribonucleoside complex) was added to each well, the plate was gently agitated and then incubated at room temperature for five minutes. 55 μL of lysate was transferred to Oligo d(T) coated 96-well plates (AGCT Inc., Irvine Calif.). Plates were incubated for 60 minutes at room temperature, washed 3 times with 200 μL of wash buffer (10 mM Tris-HCl pH 7.6, 1 mM EDTA, 0.3 M NaCl). After the final wash, the plate was blotted on paper towels to remove excess wash buffer and then air-dried for 5 minutes. 60 μL of elution buffer (5 mM Tris-HCl pH 7.6), preheated to 70° C. was added to each well, the plate was incubated on a 90° C. hot plate for 5 minutes, and the eluate was then transferred to a fresh 96-well plate.
PI3K p85 probes and primers were designed to hybridize to the human PI3K p85 sequence, using published sequence information (GenBank accession number M61906, incorporated herein as SEQ ID NO: 1).
Target sites are indicated by nucleotide numbers, as given in the sequence source reference (Genbank accession no. M61906), to which the oligonucleotide binds. All compounds in Table 1 are oligodeoxynucleotides with phosphorothioate backbones (internucleoside linkages) throughout. […] Data are averages from two experiments. If present, “N.D.” indicates “no data”.
In accordance with the present invention, a second series of oligonucleotides targeted to human PI3K p85 were synthesized. Target sites are indicated by nucleotide numbers, as given in the sequence source reference (Genbank accession no. M61906), to which the oligonucleotide binds.
Cytidine residues in the 2′-MOE wings are 5-methylcytidines.
Data were obtained by real-time quantitative PCR as described in other examples herein and are averaged from two experiments. If present, “N.D.” indicates “no data”.

Substance	% Inhibition of PI3K p85 mRNA levels [%]
28017 (antisense eA*eT*e[5mC]*eT*dT*dC*dT*dT*dC*dT*dC*dT*dT*dT*e[5mC]*e[5mC]*eT*eT) [compound 28017]	59

Same assay, conditions: phosphorothioate oligodeoxynucleotides, oligonucleotide 150 nM, averages from two experiments

Substance	% Inhibition of PI3K p85 mRNA levels [%]
27977 (antisense ATCTTCTTCTCTTTCCTT; DNA, all phosphorothioate, methylation of C not given here) [compound 27977]	0
27978 (antisense GCTTCCTGTCCATCACTG; DNA, all phosphorothioate, methylation of C not given here) [compound 27978]	29
27979 (antisense TTCAATGGCTTCCACGAG; DNA, all phosphorothioate, methylation of C not given here) [compound 27979]	6
27980 (antisense AATTCTGCCAGGTTGCTG; DNA, all phosphorothioate, methylation of C not given here) [compound 27980]	0
27981 (antisense GTAAGTCCAGGAGATAGC; DNA, all phosphorothioate, methylation of C not given here) [compound 27981]	14
27982 (antisense ATTTCACTGTAAACGGCT; DNA, all phosphorothioate, methylation of C not given here) [compound 27982]	19
27983 (antisense GCTTGAAGAAATGTTTTA; DNA, all phosphorothioate, methylation of C not given here) [compound 27983]	0
27984 (antisense GGCTGCTGAGAATCTGAA; DNA, all phosphorothioate, methylation of C not given here) [compound 27984]	22
27985 (antisense GTTCATTCCATTCAGTTG; DNA, all phosphorothioate, methylation of C not given here) [compound 27985]	13
27986 (antisense dA*dG*dT*dA*dG*dG*dT*dT*dT*dT*dG*dG*dT*dG*dG*dT*dT*dT) [compound 27986]	0
27987 (antisense TTATTCATACCGTTGTTG; DNA, all phosphorothioate, methylation of C not given here) [compound 27987]	4
27988 (antisense ATTCAGCATTTTGTAAGG; DNA, all phosphorothioate, methylation of C not given here) [compound 27988]	1
27989 (antisense ACCACAGAACTGAAGGTT; DNA, all phosphorothioate, methylation of C not given here) [compound 27989]	0
27990 (antisense ATTTCCTGGGATGTGCGG; DNA, all phosphorothioate, methylation of C not given here) [compound 27990]	52
27991 (antisense CCGCTCTTGGGTCTGGCA; DNA, all phosphorothioate, methylation of C not given here) [compound 27991]	71
27992 (antisense TTTCTCATTGCCTTCACG; DNA, all phosphorothioate, methylation of C not given here) [compound 27992]	0
27993 (antisense ATCCTTTGTATTTCTTTC; DNA, all phosphorothioate, methylation of C not given here) [compound 27993]	15
27994 (antisense TTCAAGTCTTCTTCCAAT; DNA, all phosphorothioate, methylation of C not given here) [compound 27994]	15
27995 (antisense ATTGGTCTCTCGTCTTTC; DNA, all phosphorothioate, methylation of C not given here) [compound 27995]	0
27996 (antisense TCAACTTCTTTTGCCGAA; DNA, all phosphorothioate, methylation of C not given here) [compound 27996]	38

Substance	% Inhibition of PI3K p85 mRNA levels [%]
27997 (antisense TTGCCCAACCACTCGTTC; DNA, all phosphorothioate, methylation of C not given here) [compound 27997]	55
27998 (antisense GTCTTCAGTGTTTTCATT; DNA, all phosphorothioate, methylation of C not given here) [compound 27998]	0
27999 (antisense CTTTGTTTCGGTTGCTGC; DNA, all phosphorothioate, methylation of C not given here) [compound 27999]	36
28000 (antisense CCTGTTTACTGCTCTCCC; DNA, all phosphorothioate, methylation of C not given here) [compound 28000]	20
28001 (antisense CCACCACTACAGAGCAGG; DNA, all phosphorothioate, methylation of C not given here) [compound 28001]	0
28002 (antisense CTTTACTTCGCCGTCCAC; DNA, all phosphorothioate, methylation of C not given here) [compound 28002]	41
28003 (antisense AAAGCCATAGCCAGTTGC; DNA, all phosphorothioate, methylation of C not given here) [compound 28003]	0
28004 (antisense ACATTGAGGGAGTCGTTG; DNA, all phosphorothioate, methylation of C not given here) [compound 28004]	0
28005 (antisense GCCCTTTGCTTTCCAGAG; DNA, all phosphorothioate, methylation of C not given here) [compound 28005]	0
28006 (antisense ATCAGACTGGAGAGGAGC; DNA, all phosphorothioate, methylation of C not given here) [compound 28006]	27
28007 (antisense AAAGAAGGGATAAGCACT; DNA, all phosphorothioate, methylation of C not given here) [compound 28007]	7
28008 (antisense CTGCCTCTCTCTCCTCCG; DNA, all phosphorothioate, methylation of C not given here) [compound 28008]	0
28009 (antisense CCAGGCTAAACCAGGCTG; DNA, all phosphorothioate, methylation of C not given here) [compound 28009]	57
28010 (antisense TGTCTGGGTCCACCGTGC; DNA, all phosphorothioate, methylation of C not given here) [compound 28010]	55
28011 (antisense GACGTGCCTTTCTGCTAC; DNA, all phosphorothioate, methylation of C not given here) [compound 28011]	28
28012 (antisense ATTCTCCCAAAGCGTCCC; DNA, all phosphorothioate, methylation of C not given here) [compound 28012]	19
28013 (antisense TTCTGGCACTTTCTATGA; DNA, all phosphorothioate, methylation of C not given here) [compound 28013]	28
28014 (antisense CCTTCAGCAAAACAAAAC; DNA, all phosphorothioate, methylation of C not given here) [compound 28014]	24
28015 (antisense AACTGAAATAACAACTTA; DNA, all phosphorothioate, methylation of C not given here) [compound 28015]	6
28016 (antisense CCAACAAAACAGTCCAAA; DNA, all phosphorothioate, methylation of C not given here) [compound 28016]	6
